The target of experiment [1] is T1, TYK2 (JH2domain-pseudokinase) (Homo sapiens, UniProt P29597).
T1 construct: TYK2 (JH2domain-pseudokinase)-tagged T7 phage strains were prepared in an E. coli host derived from the BL21 strain; made in house; host or cells: E. coli BL21-derived host (T7 phage) or HEK-293 cells
In words: TYK2 JH2 domain binding assay (KINOMEscan). In outline:
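Kd values come from nonlinear least-squares fits of 11-point 3-fold dilutions (mostly 30,000 nM top, lowered when Kd fell below 0.5 nM). Test compound competed with bead-bound biotinylated ligand for qPCR-tagged TYK2 pseudokinase (JH2) domain, shaken 1 h at room temperature, with about 1% final DMSO.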

The subject of experiment [2] is STAT1/3 through TYK2/JAK1. In words: IFNa induced STAT phosphorylation in HEK293 cells (SIE-bla reporter gene). Particulars: Homo sapiens, HEK293; HEK293T-sie-bla cells, IFNa at EC80, 4 hours; read-out: Inhibition of IFNa induced STAT phosphorylation HEK293 cells IC50. Type of experiment: cell-based. In outline:
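Read-out was FRET from a β-lactamase reporter under a SIE promoter in HEK293T cells, with substrate added after a 4 h, 37°C co-incubation of compound and EC80 IFNa and left overnight in the dark. Compounds ran as 10-point 1/5 dilutions at 0.1% final DMSO; four-parameter log fit gave IC50.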
In general terms: Reporter assays use an easily measured gene product as a stand-in for the process of interest.

In the next experiment the test system is STAT6 through JAK1/JAK3. The experiment in a line: IL4 induced STAT phosphorylation in Ramos cells (STAT6-bla reporter gene). Type of experiment: cell-based. Particulars: for inhibition at 5 µM / inhibition at 25 µM: Homo sapiens, Ramos; for inhibition at 25 µM: compound concentration 25 µM. How it is done: Stimulation of RAMOS cells with interleukine IL-4 activates the signaling pathway of STAT6 through JAK1/JAK3. In this assay, measurement of the activity of the reporter gene β-lactamase expression was used as the readout.
Ramos STAT6-bla RA-1 cell line were purchased from Life Technologies (ref. #K1243) and cultured as specified by the provider. A number of 30.000 cells per well (35 µl) were plated in a 384-well plate (Corning ref.# 3712) and cultured overnight at 37°C with 5% CO2 in a complete Optimem media (Life Technologies ref. #11058-021) containing 556 µg/mL CD40 (Life Technologies ref. #PHP0025), 0.5% (v/v) heat inactivated FBS (Life Technologies ref. #10082-147), 10 µM non-essential aminoacids NEAA (Sigma ref. #M7145), 100 µM Sodium Pyruvate (Gibco ref. #11360-039) and 100 U/mL Penicillin (Sigma ref. #P0781). Compounds were initially dissolved in 100% DMSO. Compound curves were then prepared using a 1/5 serial dilution (10 dilutions). The dilutions were directly diluted in complete Optimem media without CD40 at 40-fold their final concentration in 20% DMSO. IL-4 initial solution (Prepotech ref. #200-04) was prepared at 10-fold its EC80 in complete Optimem media without CD40. Compounds and IL-4 were added simultaneously to the wells with cells and incubated during 4 hours at 37°C (the final DMSO was 0.1%). The β-lactamase substrate (LifeTechnologies ref.#K1138) was prepared at 6-fold its final concentration as specified by the provider. Then 10 µL of the mixture was added to the wells to stop the stimulation. Plate was left in the dark over-night. Then a FRET reading was performed on an appropriate plate reader.
All experiments were analysed using an ExcelFit template and the four-parameter log equation. As % vs compound concentration. TABLE 3: Inhibition of IL4 induced STAT phosphorylation in Ramos cells.

pIC50, pKd: −log10 of the molar value. Where “and” joins values, the source holds several entries; their conditions need not be identical. Equal values may be shown once.

T1 sequence (P29597 589-875 limits assumed): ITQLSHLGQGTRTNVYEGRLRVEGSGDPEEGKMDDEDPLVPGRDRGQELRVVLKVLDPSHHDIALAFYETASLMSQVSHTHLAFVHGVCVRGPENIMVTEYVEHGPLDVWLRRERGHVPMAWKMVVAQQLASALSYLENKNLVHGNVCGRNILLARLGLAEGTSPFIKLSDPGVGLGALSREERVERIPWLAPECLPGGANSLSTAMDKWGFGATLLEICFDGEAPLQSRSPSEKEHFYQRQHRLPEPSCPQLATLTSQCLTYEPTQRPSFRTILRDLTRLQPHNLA

As a reminder, the pKd is the negative decadic logarithm of the Kd, by convention in mol/L. Read a low pKd as a large Kd. Broadly, the pIC50 is the IC50 on a negative log10 scale, so that one unit is a factor of ten. For orientation: inhibition means the change of the read-out against control, counted positive when it falls. Low values mean little suppression, high ones strong suppression. As for `CN(c1ccccc1Nc1cc(Nc2cccc(C#N)n2)ncn1)S(C)(=O)=O` [Example 32, N-[2-[[6-[(6-cyano-2-pyridyl)amino]pyrimidin-4-yl]amino]phenyl]-N-methyl-methanesulfonamide], in experiment [1], the pKd is over 9.70. In addition, the pIC50 in experiment [2] was over 8.00. The same compound displayed an inhibition at 5 µM in the experiment on STAT6 through JAK1/JAK3 (compound concentration 5 µM) of 70%.

`COc1c(Nc2cc(Nc3cc(C)nc(C)n3)ncn2)cccc1-c1noc(C)n1` [Example 37, N4-(2,6-dimethylpyrimidin-4-yl)-N6-[2-methoxy-3-(5-methyl-1,2,4-oxadiazol-3-yl)phenyl]pyrimidine-4,6-diamine] gave a pKd in experiment [1] of over 9.70. The negative logarithm of the IC50 (pIC50) in experiment [2] was 7.00 to 8.00. This compound came in with an inhibition at 5 µM with STAT6 through JAK1/JAK3 (compound concentration 5 µM) of 44%.

`Cc1cc(Nc2cc(Nc3ccc(C4CC4)cc3N(C)S(C)(=O)=O)ncn2)nc(C)n1` [Example 70, N-[5-cyclopropyl-2-[[6-[(2,6-dimethylpyrimidin-4-yl)amino]pyrimidin-4-yl]amino]phenyl]-N-methyl-methanesulfonamide] showed a negative-log Kd (pKd) in experiment [1] of over 9.70. The pIC50 in experiment [2] is over 8.00. Besides, the “% Inhibition of IL4 induced STAT phosphorylation Ramos cells” value with STAT6 through JAK1/JAK3 (compound concentration 5 µM, 5 µM) is 78% and 55%.

`COc1cc(-c2cnn(C)c2C)ccc1Nc1cc(Nc2cc(C)nc(C)n2)ncn1` [Example 80, N6-[4-(1,5-dimethylpyrazol-4-yl)-2-methoxy-phenyl]-N4-(2,6-dimethylpyrimidin-4-yl)pyrimidine-4,6-diamine] showed a pKd in experiment [1] of over 9.70. Also, in experiment [2], the pIC50 was 7.00 to 8.00. In addition, at 5 µM the inhibition with STAT6 through JAK1/JAK3 (compound concentration 5 µM) was 47%.

Compound `Cc1cc(Nc2cc(Nc3ccc(-c4cnn(C)c4C)cc3S(C)(=O)=O)ncn2)nc(C)n1` [Example 86, N4-[4-(1,5-dimethylpyrazol-4-yl)-2-methylsulfonyl-phenyl]-N6-(2,6-dimethylpyrimidin-4-yl)pyrimidine-4,6-diamine] had a pKd in experiment [1] of over 9.70. The negative logarithm of the IC50 (pIC50) in experiment [2] is over 8.00. This compound also showed an inhibition at 25 µM in the experiment on STAT6 through JAK1/JAK3 of 78%.

As to `Cc1cc(Nc2cc(Nc3ncc(-c4cnn(C)c4C)cc3N(C)S(C)(=O)=O)ncn2)ncc1F` [Example 103, N-[5-(1,5-dimethylpyrazol-4-yl)-2-[[6-[(5-fluoro-4-methyl-2-pyridyl)amino]pyrimidin-4-yl]amino]-3-pyridyl]-N-methyl-methanesulfonamide], the pKd in experiment [1] is over 9.70. Besides, in experiment [2], the negative-log IC50 (pIC50) is over 8.00. In the experiment on STAT6 through JAK1/JAK3 (compound concentration 5 µM), this compound showed an inhibition at 5 µM of 49%.

`COc1c(-c2ncn(C)n2)ccnc1Nc1cc(Nc2cc(C)nc(C)n2)ncn1` [Example 119, N6-(2,6-dimethylpyrimidin-4-yl)-N4-[3-methoxy-4-(1-methyl-1,2,4-triazol-3-yl)-2-pyridyl]pyrimidine-4,6-diamine]: the pKd in experiment [1] was over 9.70. Besides, the pIC50 in experiment [2] is over 8.00. Besides, the inhibition at 5 µM in the experiment with STAT6 through JAK1/JAK3 (compound concentration 5 µM) turned out to be 47%.

On to `Cc1cc(Nc2cc(Nc3ncc(-c4cnn(C)c4C)cc3N(C)S(C)(=O)=O)ncn2)nc(C)n1` [Example 124, N-[5-(1,5-dimethylpyrazol-4-yl)-2-[[6-[(2,6-dimethylpyrimidin-4-yl)amino]pyrimidin-4-yl]amino]-3-pyridyl]-N-methyl-methanesulfonamide], for which, in experiment [1], the negative logarithm of the Kd (pKd) was over 9.70. Besides, in experiment [2], the pIC50 was over 8.00. Besides, at 5 µM the inhibition in the experiment with STAT6 through JAK1/JAK3 (compound concentration 5 µM) was 50%.

For `Cc1cc(Nc2cc(Nc3ncccc3S(C)(=O)=O)ncn2)nc(C)n1` [Example 125, N4-(2,6-dimethylpyrimidin-4-yl)-N6-(3-methylsulfonyl-2-pyridyl)pyrimidine-4,6-diamine], the pKd in experiment [1] was over 9.70. Besides, the pIC50 in experiment [2] was over 8.00. The compound also displayed an inhibition at 5 µM with STAT6 through JAK1/JAK3 (compound concentration 5 µM) of 46%.

In experiment [1], `Cc1cc(Nc2cc(Nc3ncc(-c4cnn(C)c4)cc3N(C)S(C)(=O)=O)ncn2)nc(C)n1` [Example 126, N-[2-[[6-[(2,6-dimethylpyrimidin-4-yl)amino]pyrimidin-4-yl]amino]-5-(1-methylpyrazol-4-yl)-3-pyridyl]-N-methyl-methanesulfonamide] had a pKd of over 9.70. Besides, in experiment [2], the pIC50 was over 8.00. In the experiment on STAT6 through JAK1/JAK3, this compound came in with an inhibition at 25 µM of 54%.

As for `Cc1cc(Nc2cc(Nc3ncc(-c4cnn(C)c4C)cc3N(C)S(C)(=O)=O)ncn2)ncn1` [Example 135, N-[5-(1,5-dimethylpyrazol-4-yl)-2-[[6-[(6-methylpyrimidin-4-yl)amino]pyrimidin-4-yl]amino]-3-pyridyl]-N-methyl-methanesulfonamide], in experiment [1], the negative logarithm of the Kd (pKd) was over 9.70. Moreover, the pIC50 in experiment [2] was 6.00 to 7.00. In the experiment on STAT6 through JAK1/JAK3 (compound concentration 5 µM), this compound displayed an inhibition at 5 µM of 37%.

As to `Cc1cc(Nc2cc(Nc3ncc(-c4cnn(C)c4C)cc3S(C)(=O)=O)ncn2)nc(C)n1` [Example 137, N4-[5-(1,5-dimethylpyrazol-4-yl)-3-methylsulfonyl-2-pyridyl]-N6-(2,6-dimethylpyrimidin-4-yl)pyrimidine-4,6-diamine], in experiment [1], the pKd was over 9.70. For the same compound, in experiment [2], the pIC50 was over 8.00. This compound also displayed an inhibition at 25 µM with STAT6 through JAK1/JAK3 of 0%.

In the case of `Cc1c(-c2cnc(Nc3cc(Nc4ccc(F)cn4)ncn3)c(N(C)S(C)(=O)=O)c2)cnn1C` [Example 138, N-[5-(1,5-dimethylpyrazol-4-yl)-2-[[6-[(5-fluoro-2-pyridyl)amino]pyrimidin-4-yl]amino]-3-pyridyl]-N-methyl-methanesulfonamide], the negative-log Kd (pKd) in experiment [1] was over 9.70. The pIC50 in experiment [2] is over 8.00. Also, testing at 5 µM in the experiment on STAT6 through JAK1/JAK3 (compound concentration 5 µM) gave an inhibition of 6%.

With `Cc1c(-c2cnc(Nc3cc(NC(=O)C4CC4)ncn3)c(N(C)S(C)(=O)=O)c2)cnn1C` [Example 139, N-[6-[[5-(1,5-dimethylpyrazol-4-yl)-3-[methyl(methylsulfonyl)amino]-2-pyridyl]amino]pyrimidin-4-yl]cyclopropanecarboxamide], in experiment [1], the pKd is over 9.70. In experiment [2], the pIC50 is over 8.00. This compound came in with an inhibition at 5 µM with STAT6 through JAK1/JAK3 (compound concentration 5 µM) of 28%.

For the origin of these results see patent publication EP4206196A1, “PYRIMIDINE SUBSTITUTED DERIVATIVES AS TYK2 INHIBITORS” (Almirall S.A., priority 2021, dated 2023).
